Legend:
[1] = Visual acuity in limbal stem cell insufficiency (LSCI) patients treated with topical steroid drops; format: in vivo, human; conditions: OU
Protocol: (§1) In these experiments, the clinical charts and images of three patients diagnosed with LSCI were retrospectively reviewed. […] The patients were followed monthly until resolution. The patients were treated with topical steroid drops based on in vivo confocal microscopy findings that indicate the presence of inflammation. […] The images were quantified for dendritiform immune cell density (DC) and total counts of nerves and branches with respective density with ImageJ/Neuron J software.

[2] = test system: dendritic cells in the central cornea and superior limbus; assay: In vivo confocal microscopy of dendritiform immune cell density in LSCI patients; set-up: species or system human; conditions: for average density of dendritic cells in the superior limbus: after treatment, pooled LSCI subjects (loteprednol etabonate or rimexolone); for average dendritic cell density in the cornea: following three months of treatment, pooled LSCI subjects (loteprednol etabonate 4 eyes, rimexolone 2 eyes), 577.4±323.8 at presentation, p=0.001
Protocol: as §1

Row | Structure (SMILES) | visual acuity after treatment ([1]; LSCI Patient 2, 0.5% QID initially, then taper for 11 months, 20/20 OD and 20/60 OS at presentation) | visual acuity after treatment ([1]; LSCI Patient 3, 0.5% QID initially, then taper for 4 months, 20/30 OD and 20/20 OS at presentation) | average density of dendritic cells in the superior limbus [2] [cells/mm^2] | average dendritic cell density in the cornea [2] [cells/mm^2] | visual acuity after treatment ([1]; LSCI Patient 1, 1% QID initially, then taper for 5 months, 20/25 OD and 20/40 OS at presentation)
1 | CCOC(=O)O[C@]1(C(=O)OCCl)CC[C@H]2[C@@H]3CCC4=CC(=O)C=C[C@]4(C)[C@H]3[C@@H](O)C[C@@]21C [loteprednol etabonate] | 20/20 | 20/20 | 238.2±158.4 | 234.6±233.7 | 
2 | CCC(=O)[C@@]1(C)[C@H](C)C[C@H]2[C@@H]3CCC4=CC(=O)C=C[C@]4(C)[C@H]3[C@@H](O)C[C@@]21C [rimexolone] |  |  | 238.2±158.4 | 234.6±233.7 | 20/20
